The target in this assay is ABCB1 (P-glycoprotein) (Homo sapiens, UniProt P08183). Kind of assay: ABCB1 ATPase stimulation in plasma membrane vesicles. It counts as biochemical.
Sequence of ABCB1 (P-glycoprotein) (P08183 whole entry): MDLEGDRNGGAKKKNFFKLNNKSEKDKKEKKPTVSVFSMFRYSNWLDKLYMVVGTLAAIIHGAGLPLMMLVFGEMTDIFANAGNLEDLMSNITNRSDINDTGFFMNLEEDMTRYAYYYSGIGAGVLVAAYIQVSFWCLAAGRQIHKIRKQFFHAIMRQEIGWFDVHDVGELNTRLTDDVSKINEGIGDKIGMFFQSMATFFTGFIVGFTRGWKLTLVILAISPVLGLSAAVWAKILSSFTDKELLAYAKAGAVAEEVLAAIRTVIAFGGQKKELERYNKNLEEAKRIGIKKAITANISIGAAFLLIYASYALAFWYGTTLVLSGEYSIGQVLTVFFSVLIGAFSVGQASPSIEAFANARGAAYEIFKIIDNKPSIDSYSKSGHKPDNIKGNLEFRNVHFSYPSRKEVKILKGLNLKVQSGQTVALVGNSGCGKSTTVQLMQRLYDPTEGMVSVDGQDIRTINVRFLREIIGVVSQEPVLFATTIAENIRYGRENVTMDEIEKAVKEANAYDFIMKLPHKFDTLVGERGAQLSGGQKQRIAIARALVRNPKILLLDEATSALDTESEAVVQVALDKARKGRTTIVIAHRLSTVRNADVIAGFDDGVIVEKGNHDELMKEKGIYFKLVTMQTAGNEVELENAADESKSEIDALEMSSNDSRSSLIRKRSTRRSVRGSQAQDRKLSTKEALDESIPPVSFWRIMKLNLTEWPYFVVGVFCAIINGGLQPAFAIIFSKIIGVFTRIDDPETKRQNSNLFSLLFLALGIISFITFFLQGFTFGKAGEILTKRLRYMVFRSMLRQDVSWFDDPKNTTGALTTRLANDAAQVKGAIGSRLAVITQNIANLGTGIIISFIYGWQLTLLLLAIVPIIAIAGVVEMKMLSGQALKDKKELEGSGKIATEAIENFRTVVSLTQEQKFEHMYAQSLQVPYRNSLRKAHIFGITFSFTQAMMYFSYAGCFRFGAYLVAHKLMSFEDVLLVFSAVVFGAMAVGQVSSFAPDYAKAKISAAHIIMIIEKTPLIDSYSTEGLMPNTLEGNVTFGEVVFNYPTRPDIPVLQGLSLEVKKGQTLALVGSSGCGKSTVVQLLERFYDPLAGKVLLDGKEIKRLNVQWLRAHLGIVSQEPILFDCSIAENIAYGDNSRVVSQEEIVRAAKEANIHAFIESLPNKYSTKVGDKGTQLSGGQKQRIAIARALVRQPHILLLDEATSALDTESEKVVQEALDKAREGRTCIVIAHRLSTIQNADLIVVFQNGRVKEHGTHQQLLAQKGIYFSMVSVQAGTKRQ

Turning to `[La+3].c1cnc2c(c1)ccc1cccnc12.c1cnc2c(c1)ccc1cccnc12.c1cnc2c(c1)ccc1cccnc12` [KP772, [tris(1,10-phenanthroline)lanthanum(III)] trithiocyanate], the EC50 – broadly, the concentration needed to bring the measured effect to its halfway point – is more than 100 µM.

These data come from article PMC3371634 (Biochemical pharmacology, 2007).
